Reference: patent publication US20250367218A1, “METHODS OF TREATING METABOLIC DISORDERS AND COMBINATION PRODUCTS FOR USE IN THE SAME” (INSTITUT PASTEUR DE MONTEVIDEO, priority 2024, published 2025)

Columns and labels:
[1] = Cumulative food intake of mice fed a high-fat diet (HFD); format: in vivo, C57BL/6J mice; settings: SANA 200 mg/kg/day PO continued after 1.5 weeks of concomitant SANA plus semaglutide 10 nmol/kg/day; FIG. 6D
Description: (§1) All studies conducted in mice utilized C57BL/6J mice maintained at the Institut Pasteur de Montevideo Animal facility (UBAL). Experimental protocols were approved by the Institutional Animal Care and Use Committee of the Institut Pasteur de Montevideo (CEUA, Protocol numbers 003-19 and 006-19). Studies were performed according to the methods approved in the protocols. All the experiments were performed on adult male mice (10-12 weeks of age) and were conducted at either 22° C. with free access to food and water. Unless specified, mice were housed at 22° C. in groups of five.
High-fat diet (HFD) feeding: Male C57BL/6J mice housed at 22° C. were fed a high-fat diet (42% fat and 0.25% cholesterol, AlN93G, LabDiet, USA), starting at 12 weeks of age and for a duration of 5 weeks prior to beginning administration of any active pharmaceutical ingredients. After the onset of the treatment, HFD ad libitum was maintained until the end of the experiments. […]
A higher dose of SANA was then assessed for its ability to prevent the regain of weight in mice following discontinuation of GLP-1 treatment. […] The weight regain of the mice was monitored for another 1.5-6.5 weeks. *, **, ***, #, and ## show statistically significant differences, p<0.05, p<0.01, p<0.001, p<0.05, and p<0.01, respectively. […]

[2] = Body weight of obese mice fed a high-fat diet (HFD) during treatment; format: in vivo, C57BL/6J mice
Description: as §1
High-fat diet (HFD) feeding: Male C57BL/6J mice housed at 22° C. were fed a high-fat diet (42% fat and 0.25% cholesterol, AlN93G, LabDiet, USA), starting at 12 weeks of age and for a duration of 5 weeks prior to beginning administration of any active pharmaceutical ingredients. After the onset of the treatment, HFD ad libitum was maintained until the end of the experiments.
Drug delivery: SANA was administered orally (PO) by mixing with the food (50, 100, or 200 mg/kg/day), or subcutaneously (SC, 10, 15, or 20 mg/kg/day in 100 mM phosphate buffer, pH 6.5). In all cases the vehicle was used as control. Liraglutide (Novo Nordisk, Denmark) was administered daily, subcutaneously (SC, 0.2 mg/kg/day). Semaglutide (Ozempic®, Novo Nordisk, Denmark) was administered subcutaneously (SC, 2 nmol/kg/day or 40 mg/kg every 3 days).
Mice were fed with a high fat diet (HFD) for 5 weeks prior to the initiation of treatment, and the high-fat diet continued during a 2-week treatment period. FIGS. 1A-1B show graphs of average mouse weight without treatment (HFD, n=8), treatment with SANA (HFD+SANA, 200 mg/kg/day, n=9), treatment with liraglutide (HFD+LIRA, 0.2 mg/kg/day, n=8), or treatment with a combination of SANA (200 mg/kg/day) and liraglutide (0.2 mg/kg/day) (HFD+SANA+LIRA, n=10).
FIGS. 3A and 3B show graphs of the average mouse weight without treatment (n=9), treatment with SANA (15 mg/kg/day, n=8), treatment with semaglutide (2 nmol/kg/day, n=10), or treatment with a combination of SANA (15 mg/kg/day) and semaglutide (2 nmol/kg/day) (n=10). Mice were fed with a high fat diet (HFD) for 5.5 weeks prior to the initiation of treatment, and the high-fat diet continued during the 3-week treatment period. Referring to FIGS. 3A and 3B, obese mice administered SANA alone (HFD+SANA) or semaglutide alone (HFD+SEMA) experienced an average weight loss of about 5% after three weeks.
In a separate experiment, different doses of subcutaneous semaglutide alone were compared to treatment with oral administration of SANA alone, and to treatment with a combination of oral SANA and two different doses of subcutaneous semaglutide. […]

[3] = Blood glucose measurements: fasting/basal glucose and glucose tolerance test (GTT) in HFD mice; format: in vivo, C57BL/6J mice; settings: SANA 200 mg/kg/day PO after discontinuation of concomitant SANA plus semaglutide, versus semaglutide 10 nmol/kg/day alone; FIGS. 6E, 6F
Description: Blood glucose measurements: Mice were kept in fasting for 16 h before fasting glucose measurement and glucose tolerance tests (GTT). When performing GTT, mice were injected (IP) with 1.5 g/kg body weight of glucose solution. Plasma glucose concentrations were measured from blood obtained from the tail using a hand-held glucometer (Accu-Chek, Roche).
Glucose tolerance (“GTT”), basal glucose, and glucose Area Under the Curve (“AUC”) were also measured following two weeks of treatment, and the results are presented graphically in FIGS. 2A, 2B, and 2C with * indicating a statistically significant difference, p<0.05.
A higher dose of SANA was then assessed for its ability to prevent the regain of weight in mice following discontinuation of GLP-1 treatment. Referring to FIGS. 6B and 6C, mice were fed a high-fat diet for a period of 5.5 weeks, and then were untreated (HFD), treated with GLP-1 agonist (semaglutide, 10 nmol/kg/day—SC), or treated with semaglutide+SANA for a period of 1.5 weeks, at which time, the semaglutide treatment was ceased and the groups were treated only with SANA (200 mg/kg/day, PO). The weight regain of the mice was monitored for another 1.5-6.5 weeks. *, **, ***, #, and ## show statistically significant differences, p<0.05, p<0.01, p<0.001, p<0.05, and p<0.01, respectively. […]

[4] = Serum non-esterified fatty acids (NEFA) in HFD mice; format: in vivo, C57BL/6J mice; settings: 4 weeks; SANA 200 mg/kg/day, semaglutide 2 nmol/kg/day, alone or combined; FIG. 7B
Description: As described in Example 2A above, mice were fed with a high fat diet (HFD) for 5.5 weeks prior to the initiation of treatment, and the high-fat diet continued during the 4 week treatment period. Different doses of semaglutide were provided, either alone or in combination with SANA, and compared to SANA alone and untreated mice alone. Specifically, mice were either untreated (HFD) (n=5), or treated with SANA (200 mg/kg/day, n=5), semaglutide (0.25 nmol/kg/day, n=5), semaglutide (2 nmol/kg/day, n=4), a combination of SANA (200 mg/kg/day) and semaglutide (0.25 nmol/kg/day) (n=5), or a combination of SANA (200 mg/kg/day) and semaglutide (2 nmol/kg/day) (n=3).
Next, different doses of SANA were tested, either alone or in combination with semaglutide, and compared to treatment with semaglutide alone and untreated mice. Specifically, as described in Example 2A above, mice were fed with a high fat diet (HFD) for 5.5 weeks prior to the initiation of treatment, and the high-fat diet continued during the 1.5-week treatment period. […]

[5] = cited from earlier work
[6] = Weight regain of HFD mice after discontinuation of treatment (rebound effect); format: in vivo, C57BL/6J mice
Description: Comparison of weight regain in mice following discontinuation of treatment with SANA or a GLP-1 agonist was measured in order to quantify the “rebound effect” as a result of discontinuing treatment. Mice were fed a high-fat diet for a period of 5 weeks, and were then untreated (HFD), treated with GLP-1 agonist (liraglutide, 0.2 mg/kg/day SC daily injection, LIRA), or treated with SANA (200 mg/kg/day PO) for a period of nine weeks. The high-fat diet was continued during the treatment period. Following week 9, all treatment was discontinued and weight regain in the mice was monitored through week 14.
The ability of SANA to prevent the regain of weight in mice following discontinuation of GLP-1 treatment was also assessed. Mice were fed a high-fat diet for a period of 5.5 weeks, and were then untreated (HFD), treated with GLP-1 agonist (semaglutide, 40 mg/kg s.c. every 3 days), or treated with semaglutide+SANA (10 mg/kg/day) for a period of 2.5 weeks. At week 8, except for the control group (HFD) all groups were treated only with SANA (10 mg/kg/day, s.c.).
A higher dose of SANA was then assessed for its ability to prevent the regain of weight in mice following discontinuation of GLP-1 treatment. […] The weight regain of the mice was monitored for another 1.5-6.5 weeks. *, **, ***, #, and ## show statistically significant differences, p<0.05, p<0.01, p<0.001, p<0.05, and p<0.01, respectively.

[7] = obese mice treated with SANA, WO2020058917A1 / US2023346728A1

O=C(O)c1cc(/C=C/[N+](=O)[O-])ccc1O [SANA, 5-(2-nitroethenyl) salicylic acid]
cumulative food intake after discontinuation of semaglutide [1]: remained lower
average reduction in weight during the treatment period ([2]; HFD mice, nine weeks, liraglutide 0.2 mg/kg/day SC or SANA 200 mg/kg/day PO, FIG. 5): 15%
average weight loss ([2]; obese HFD mice, after four weeks, oral SANA 200 mg/kg/day, subcutaneous semaglutide 2 nmol/kg/day, alone or concomitant, FIGS. 3E, 3F): about 5%
average weight loss ([2]; obese HFD mice, after three weeks, SANA 15 mg/kg/day, semaglutide 2 nmol/kg/day, alone or concomitant, FIGS. 3A, 3B): about 5%
weight loss ([2]; obese HFD mice, after two weeks, SANA 200 mg/kg/day, liraglutide 0.2 mg/kg/day, alone or concomitant, FIGS. 1A, 1B): about 10%
fasting glucose, lower [3]: 55%
drop in serum NEFA levels [4]: little to no change
thermogenesis and beiging of white adipose tissue ([5]; mice under diet-induced obesity (DIO), by activating creatine-dependent thermogenesis): stimulates thermogenesis and beiging of white adipose tissue
fat accretion [5, 7]: resistance to fat accretion
glucose intolerance [5, 7]: improved glucose intolerance
liver steatosis [5, 7]: absence of liver steatosis
response to cold challenge [5, 7]: improved response to cold challenge
regain of weight after discontinuation of semaglutide ([6]; SANA 10 mg/kg/day s.c. after 2.5 weeks of semaglutide (40 mg/kg s.c. every 3 days) alone or SANA plus semaglutide, FIG. 6A): prevented regain of weight
regain of weight after discontinuation of semaglutide ([6]; SANA 200 mg/kg/day PO after 1.5 weeks of semaglutide (10 nmol/kg/day SC) alone or SANA plus semaglutide, FIGS. 6B, 6C): prevented regain of weight
